We go through 16 compounds from ChEMBL document CHEMBL4431331, “Design and evaluation of 1,7-naphthyridones as novel KDM5 inhibitors” (Bioorg Med Chem Lett, 2016).

Molecules are shown by their SMILES. Active and inactive are the calls of the source. No cut-off for these calls is given here.

Data set [1] in a line: Dissociation constant, pKa of the compound. In kind it is physicochemical.
The target of data set [2] is T1, Lysine-specific demethylase 4C (Homo sapiens, UniProt Q9H3R0).
T1 sequence (Q9H3R0 whole entry): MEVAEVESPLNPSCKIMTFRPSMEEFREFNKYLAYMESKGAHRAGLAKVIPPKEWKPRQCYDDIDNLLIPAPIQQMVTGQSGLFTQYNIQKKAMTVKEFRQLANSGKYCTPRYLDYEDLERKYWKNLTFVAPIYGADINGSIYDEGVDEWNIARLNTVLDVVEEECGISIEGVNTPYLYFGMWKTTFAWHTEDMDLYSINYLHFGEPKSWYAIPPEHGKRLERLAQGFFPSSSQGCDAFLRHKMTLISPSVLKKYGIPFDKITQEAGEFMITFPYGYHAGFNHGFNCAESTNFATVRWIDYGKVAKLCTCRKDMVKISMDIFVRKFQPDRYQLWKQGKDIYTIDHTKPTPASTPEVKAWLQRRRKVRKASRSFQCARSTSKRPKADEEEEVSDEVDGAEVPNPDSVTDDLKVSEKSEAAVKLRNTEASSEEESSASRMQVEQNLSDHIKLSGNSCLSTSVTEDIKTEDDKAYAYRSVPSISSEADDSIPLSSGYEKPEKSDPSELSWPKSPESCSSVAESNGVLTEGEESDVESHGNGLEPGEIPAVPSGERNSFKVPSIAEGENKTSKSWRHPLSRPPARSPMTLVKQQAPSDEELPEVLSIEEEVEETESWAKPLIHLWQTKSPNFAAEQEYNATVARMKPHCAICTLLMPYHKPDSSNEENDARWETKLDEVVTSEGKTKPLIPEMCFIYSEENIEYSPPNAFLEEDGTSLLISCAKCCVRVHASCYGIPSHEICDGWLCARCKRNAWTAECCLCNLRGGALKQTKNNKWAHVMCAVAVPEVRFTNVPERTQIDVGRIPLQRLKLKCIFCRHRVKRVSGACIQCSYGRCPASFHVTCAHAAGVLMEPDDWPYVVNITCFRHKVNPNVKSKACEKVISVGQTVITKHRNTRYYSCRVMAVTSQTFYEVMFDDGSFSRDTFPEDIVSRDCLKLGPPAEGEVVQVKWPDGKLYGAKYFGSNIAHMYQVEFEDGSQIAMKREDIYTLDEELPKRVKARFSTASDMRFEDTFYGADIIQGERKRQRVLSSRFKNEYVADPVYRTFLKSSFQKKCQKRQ
Briefly: Inhibition of full length human KDM4C using biotinylated H2N-ARTKQTAR(KMe3)STGGKAPRKQLA-NTPEGBiot as substrate after 30 mins using 3 uM of 2-OG as co-substrate by TR-FRET assay. In general terms: In TR-FRET formats the signal depends on donor and acceptor labels being close together.

Data set [3] concerns the target Lysine-specific demethylase 5B (Homo sapiens, UniProt Q9UGL1). As to the kind of experiment: Inhibition of full length human KDM5B using biotinylated H2NART(KMe3)QTARKSTGGKAPRKQLA-NTPEG-biotin as substrate after 30 to 40 mins using 2 uM of 2-OG as co-substrate by TR-FRET assay.
Data set [4] concerns the target T2, Lysine-specific demethylase 2B (Homo sapiens, UniProt Q8NHM5).
T2 sequence (Q8NHM5 whole entry): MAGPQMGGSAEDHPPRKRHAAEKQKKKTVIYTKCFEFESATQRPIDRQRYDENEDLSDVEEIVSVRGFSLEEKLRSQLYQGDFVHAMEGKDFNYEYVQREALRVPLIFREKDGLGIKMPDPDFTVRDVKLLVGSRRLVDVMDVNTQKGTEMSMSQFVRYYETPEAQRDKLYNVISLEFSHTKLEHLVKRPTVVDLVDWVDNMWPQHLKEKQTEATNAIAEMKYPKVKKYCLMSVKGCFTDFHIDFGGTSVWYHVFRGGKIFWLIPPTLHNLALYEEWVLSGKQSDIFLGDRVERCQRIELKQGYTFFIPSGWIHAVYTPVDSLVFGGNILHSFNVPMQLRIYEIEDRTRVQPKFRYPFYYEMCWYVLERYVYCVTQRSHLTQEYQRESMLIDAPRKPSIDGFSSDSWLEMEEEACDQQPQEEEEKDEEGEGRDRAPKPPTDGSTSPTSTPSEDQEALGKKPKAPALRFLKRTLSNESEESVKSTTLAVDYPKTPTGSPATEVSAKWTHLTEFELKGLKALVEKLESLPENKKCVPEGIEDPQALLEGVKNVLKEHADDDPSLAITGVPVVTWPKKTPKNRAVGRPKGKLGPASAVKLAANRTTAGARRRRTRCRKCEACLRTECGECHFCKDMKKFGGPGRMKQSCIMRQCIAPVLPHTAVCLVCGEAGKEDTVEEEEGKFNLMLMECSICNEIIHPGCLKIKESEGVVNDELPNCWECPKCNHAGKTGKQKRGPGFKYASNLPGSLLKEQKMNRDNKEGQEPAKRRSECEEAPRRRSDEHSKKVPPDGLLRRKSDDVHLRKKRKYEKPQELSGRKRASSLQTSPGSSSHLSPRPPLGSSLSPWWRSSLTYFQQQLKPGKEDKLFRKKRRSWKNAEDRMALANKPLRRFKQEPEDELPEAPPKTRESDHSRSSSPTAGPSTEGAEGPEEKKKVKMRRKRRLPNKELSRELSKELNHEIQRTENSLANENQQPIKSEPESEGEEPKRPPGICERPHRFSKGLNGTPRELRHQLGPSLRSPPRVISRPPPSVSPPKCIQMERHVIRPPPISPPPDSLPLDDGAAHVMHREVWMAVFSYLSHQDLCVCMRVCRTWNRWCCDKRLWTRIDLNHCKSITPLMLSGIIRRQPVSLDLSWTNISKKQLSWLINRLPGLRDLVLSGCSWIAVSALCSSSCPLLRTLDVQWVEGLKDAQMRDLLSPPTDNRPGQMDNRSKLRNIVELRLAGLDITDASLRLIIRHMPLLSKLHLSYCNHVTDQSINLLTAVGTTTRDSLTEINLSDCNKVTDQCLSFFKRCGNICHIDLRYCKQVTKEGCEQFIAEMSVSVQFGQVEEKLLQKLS
Briefly: Inhibition of full length human KDM2B using biotinylated H2N-RKSAPATGGV(KMe2)KPHRYRPGTV-NTPEGBiot as substrate after 2 hrs using 0.3 uM of 2-OG as co-substrate by TR-FRET assay.

Data set [5] addresses Lysine-specific demethylase 5C (Homo sapiens, UniProt P41229). As to the kind of experiment: Inhibition of full length human KDM5C using biotinylated H2NART(KMe3)QTARKSTGGKAPRKQLA-NTPEG-biotin as substrate after 30 to 40 mins using 1 uM of 2-OG as co-substrate by TR-FRET assay.
The target in data set [6] is T3, Lysine-specific demethylase 5A (Homo sapiens, UniProt P29375). As to the kind of experiment: Inhibition of full length human KDM5A using biotinylated H2NART(KMe3)QTARKSTGGKAPRKQLA-NTPEG-biotin as substrate after 30 to 40 mins using 1 uM of 2-OG as co-substrate by TR-FRET assay.
T3 sequence (P29375 whole entry): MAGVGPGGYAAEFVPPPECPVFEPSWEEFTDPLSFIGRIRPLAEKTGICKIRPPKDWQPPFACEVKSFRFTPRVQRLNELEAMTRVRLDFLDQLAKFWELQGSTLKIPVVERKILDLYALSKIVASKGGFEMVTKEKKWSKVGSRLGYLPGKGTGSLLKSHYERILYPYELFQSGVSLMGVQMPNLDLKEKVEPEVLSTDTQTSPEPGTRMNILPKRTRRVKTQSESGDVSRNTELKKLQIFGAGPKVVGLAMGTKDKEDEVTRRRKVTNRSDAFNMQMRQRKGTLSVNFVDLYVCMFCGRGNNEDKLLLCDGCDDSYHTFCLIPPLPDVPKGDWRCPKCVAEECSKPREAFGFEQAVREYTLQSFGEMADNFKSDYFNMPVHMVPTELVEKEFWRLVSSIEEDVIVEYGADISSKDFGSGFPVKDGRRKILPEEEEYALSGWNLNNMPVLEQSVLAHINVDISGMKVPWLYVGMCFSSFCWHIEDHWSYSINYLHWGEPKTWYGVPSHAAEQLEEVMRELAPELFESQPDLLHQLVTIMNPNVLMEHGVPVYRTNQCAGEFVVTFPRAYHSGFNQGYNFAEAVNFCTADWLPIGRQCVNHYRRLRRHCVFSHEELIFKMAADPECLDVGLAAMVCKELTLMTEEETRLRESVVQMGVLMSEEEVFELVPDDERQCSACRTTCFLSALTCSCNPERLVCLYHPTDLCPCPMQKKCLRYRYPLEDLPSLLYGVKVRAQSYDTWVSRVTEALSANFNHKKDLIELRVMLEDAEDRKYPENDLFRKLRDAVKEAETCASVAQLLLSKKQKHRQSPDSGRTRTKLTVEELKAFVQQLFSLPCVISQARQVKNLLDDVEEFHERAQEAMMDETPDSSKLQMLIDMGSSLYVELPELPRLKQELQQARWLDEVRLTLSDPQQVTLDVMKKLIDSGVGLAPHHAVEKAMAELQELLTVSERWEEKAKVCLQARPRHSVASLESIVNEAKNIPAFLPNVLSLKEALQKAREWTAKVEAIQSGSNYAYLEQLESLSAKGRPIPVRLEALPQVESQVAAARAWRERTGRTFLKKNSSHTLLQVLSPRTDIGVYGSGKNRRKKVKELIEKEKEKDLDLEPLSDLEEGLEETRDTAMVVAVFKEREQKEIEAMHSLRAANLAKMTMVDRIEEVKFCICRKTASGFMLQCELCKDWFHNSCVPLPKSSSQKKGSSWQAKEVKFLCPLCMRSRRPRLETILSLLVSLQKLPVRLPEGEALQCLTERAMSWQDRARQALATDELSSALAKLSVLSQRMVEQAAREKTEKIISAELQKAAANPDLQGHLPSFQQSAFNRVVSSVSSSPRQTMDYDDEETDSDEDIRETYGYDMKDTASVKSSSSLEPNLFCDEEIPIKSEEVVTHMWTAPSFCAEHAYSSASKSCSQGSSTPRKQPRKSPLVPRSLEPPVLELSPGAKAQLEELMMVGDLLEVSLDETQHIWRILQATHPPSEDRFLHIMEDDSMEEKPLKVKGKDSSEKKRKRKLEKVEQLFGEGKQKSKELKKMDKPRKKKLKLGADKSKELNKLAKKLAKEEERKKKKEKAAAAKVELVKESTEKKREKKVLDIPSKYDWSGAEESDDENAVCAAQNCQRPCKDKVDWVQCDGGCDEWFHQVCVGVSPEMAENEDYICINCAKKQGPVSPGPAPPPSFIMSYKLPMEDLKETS
Data set [7] addresses T3, Lysine-specific demethylase 5A. As to the kind of experiment: Inhibition of KDM5A in human PC9 cells assessed as increase in H3K4me3 levels upto 30 uM after 4 days by HTRF assay. In kind it is cell-based.
Data set [8] is filed under the species Homo sapiens. Briefly: Selectivity ratio of IC50 for full length human KDM4C to IC50 for full length human KDM5A.
For data set [9], the species on record is Homo sapiens. As to the kind of experiment: Selectivity ratio of IC50 for full length human KDM2B to IC50 for full length human KDM5A.
Data set [10] deals with T3, Lysine-specific demethylase 5A. Briefly: Ratio of IC50 for full length human KDM5A using biotinylated H2NART(KMe3)QTARKSTGGKAPRKQLA-NTPEG-biotin as substrate and 10 uM of 2-OG as co-substrate to IC50 for full length human KDM5A using biotinylated H2NART(KMe3)QTARKSTGGKAPRKQLA-NTPEG-biotin as substrate and 1 uM of 2-OG as co-substrate.
The target is the same in data set [11]. As to the kind of experiment: Inhibition of full length human KDM5A using biotinylated H2NART(KMe3)QTARKSTGGKAPRKQLA-NTPEG-biotin as substrate after 30 to 40 mins using 20 uM of 2-OG as co-substrate by TR-FRET assay.
Data set [12] in a line: Apparent permeability from apical to basolateral side in MDCK cells. Format: ADME, cell-based, Canis lupus familiaris. The conditions noted are these: dog.
Data set [13] in a line: Plasma protein binding in human. In kind it is ADME, cell-free. The note with it: read-out: PPB (converted).
Data set [14] can be described thus: Hepatic clearance in human liver microsomes. In kind it is ADME, Microsome. (Liver microsomes are a subcellular fraction often used to study metabolism.)
A short description of data set [15]: Competitive inhibition of KDM5 (unknown origin) in presence of 2-OG. Also on record: species or system Homo sapiens.

Chain of Lysine-specific demethylase 5B (Q9UGL1 whole entry): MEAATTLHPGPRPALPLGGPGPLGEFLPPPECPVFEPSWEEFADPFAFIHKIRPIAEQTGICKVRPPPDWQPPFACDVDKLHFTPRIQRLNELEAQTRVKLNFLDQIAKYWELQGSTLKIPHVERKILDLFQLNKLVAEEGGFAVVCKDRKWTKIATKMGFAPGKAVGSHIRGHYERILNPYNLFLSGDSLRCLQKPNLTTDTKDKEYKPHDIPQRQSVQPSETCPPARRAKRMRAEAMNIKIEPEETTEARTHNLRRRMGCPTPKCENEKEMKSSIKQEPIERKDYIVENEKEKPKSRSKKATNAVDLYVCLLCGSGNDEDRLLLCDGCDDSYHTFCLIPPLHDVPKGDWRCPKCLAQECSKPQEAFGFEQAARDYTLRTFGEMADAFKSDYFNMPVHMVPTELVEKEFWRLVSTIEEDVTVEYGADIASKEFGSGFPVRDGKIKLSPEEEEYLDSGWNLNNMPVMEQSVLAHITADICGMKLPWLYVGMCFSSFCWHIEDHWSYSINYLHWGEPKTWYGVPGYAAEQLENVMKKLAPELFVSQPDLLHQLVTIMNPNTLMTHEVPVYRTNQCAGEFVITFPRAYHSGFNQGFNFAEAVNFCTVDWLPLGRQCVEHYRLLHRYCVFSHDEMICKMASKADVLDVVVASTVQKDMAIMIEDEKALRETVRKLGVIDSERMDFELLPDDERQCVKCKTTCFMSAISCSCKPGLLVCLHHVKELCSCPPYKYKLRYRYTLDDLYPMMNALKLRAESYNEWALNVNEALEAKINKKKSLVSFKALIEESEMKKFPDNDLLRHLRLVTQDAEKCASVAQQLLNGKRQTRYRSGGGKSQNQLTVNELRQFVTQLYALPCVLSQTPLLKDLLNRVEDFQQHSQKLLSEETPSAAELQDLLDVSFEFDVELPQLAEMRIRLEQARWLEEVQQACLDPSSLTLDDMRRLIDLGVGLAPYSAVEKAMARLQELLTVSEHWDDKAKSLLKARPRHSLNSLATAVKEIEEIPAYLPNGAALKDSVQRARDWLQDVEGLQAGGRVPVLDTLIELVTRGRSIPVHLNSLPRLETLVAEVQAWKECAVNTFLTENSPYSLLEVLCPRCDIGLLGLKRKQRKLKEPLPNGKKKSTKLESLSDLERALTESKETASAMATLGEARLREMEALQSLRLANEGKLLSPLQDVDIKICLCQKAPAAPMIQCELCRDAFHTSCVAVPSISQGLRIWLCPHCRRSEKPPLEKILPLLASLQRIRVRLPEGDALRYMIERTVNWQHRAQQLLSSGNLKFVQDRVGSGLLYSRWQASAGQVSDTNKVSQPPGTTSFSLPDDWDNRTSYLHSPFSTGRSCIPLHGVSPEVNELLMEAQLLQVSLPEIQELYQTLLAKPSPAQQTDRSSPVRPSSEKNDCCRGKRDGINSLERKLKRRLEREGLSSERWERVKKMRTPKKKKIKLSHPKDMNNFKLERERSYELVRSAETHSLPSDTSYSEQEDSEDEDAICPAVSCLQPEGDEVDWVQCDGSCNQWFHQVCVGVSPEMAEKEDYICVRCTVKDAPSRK
Chain of Lysine-specific demethylase 5C (P41229 whole entry): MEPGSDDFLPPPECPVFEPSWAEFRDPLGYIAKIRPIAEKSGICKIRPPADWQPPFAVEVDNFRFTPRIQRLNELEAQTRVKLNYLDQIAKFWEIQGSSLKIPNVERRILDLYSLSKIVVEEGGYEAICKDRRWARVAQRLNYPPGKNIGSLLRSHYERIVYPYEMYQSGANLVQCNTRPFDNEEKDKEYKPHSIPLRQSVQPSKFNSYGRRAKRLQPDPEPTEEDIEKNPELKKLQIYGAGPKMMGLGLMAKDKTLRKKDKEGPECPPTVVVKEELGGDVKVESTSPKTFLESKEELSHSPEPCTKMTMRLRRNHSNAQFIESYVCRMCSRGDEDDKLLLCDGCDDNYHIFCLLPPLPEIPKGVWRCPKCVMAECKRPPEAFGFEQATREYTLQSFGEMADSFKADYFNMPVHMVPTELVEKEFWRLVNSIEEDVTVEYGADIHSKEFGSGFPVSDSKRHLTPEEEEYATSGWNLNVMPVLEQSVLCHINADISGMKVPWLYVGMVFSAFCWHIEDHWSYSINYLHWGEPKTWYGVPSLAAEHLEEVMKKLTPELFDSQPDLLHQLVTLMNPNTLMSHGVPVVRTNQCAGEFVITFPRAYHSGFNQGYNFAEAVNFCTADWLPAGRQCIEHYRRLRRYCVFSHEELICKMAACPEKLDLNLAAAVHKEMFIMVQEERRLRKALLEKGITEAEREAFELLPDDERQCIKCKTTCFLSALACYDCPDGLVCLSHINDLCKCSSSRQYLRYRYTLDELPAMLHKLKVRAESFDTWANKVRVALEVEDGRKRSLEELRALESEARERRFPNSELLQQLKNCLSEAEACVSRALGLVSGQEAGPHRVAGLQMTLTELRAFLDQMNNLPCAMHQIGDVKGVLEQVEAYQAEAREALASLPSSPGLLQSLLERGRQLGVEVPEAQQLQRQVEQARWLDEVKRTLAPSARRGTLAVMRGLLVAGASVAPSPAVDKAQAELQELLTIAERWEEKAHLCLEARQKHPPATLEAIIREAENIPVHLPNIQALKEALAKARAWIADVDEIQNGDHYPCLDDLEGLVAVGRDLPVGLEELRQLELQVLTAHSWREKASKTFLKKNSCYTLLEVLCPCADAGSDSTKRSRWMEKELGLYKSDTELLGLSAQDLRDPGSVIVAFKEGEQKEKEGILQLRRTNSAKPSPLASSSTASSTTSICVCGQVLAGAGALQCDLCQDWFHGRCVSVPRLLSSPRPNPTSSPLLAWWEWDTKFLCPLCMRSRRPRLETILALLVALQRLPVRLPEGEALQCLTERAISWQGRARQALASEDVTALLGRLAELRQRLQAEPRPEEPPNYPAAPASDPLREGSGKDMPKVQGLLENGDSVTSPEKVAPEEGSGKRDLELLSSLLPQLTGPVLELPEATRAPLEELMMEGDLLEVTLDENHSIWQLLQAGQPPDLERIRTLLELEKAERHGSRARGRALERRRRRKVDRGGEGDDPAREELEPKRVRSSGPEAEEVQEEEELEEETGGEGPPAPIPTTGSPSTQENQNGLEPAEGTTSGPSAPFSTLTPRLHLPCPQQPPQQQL

A word on the pKa: it is the pH at which an ionisable group is half protonated. For orientation: IC50 means the point on the concentration scale where inhibition reaches its midpoint. `N#Cc1c(O)c2ccncc2[nH]c1=O` displayed a pKa in [1] of 3.5. Moreover, the IC50 in data set [2] is greater than 25000 nM; in data set [3], 70 nM; in [4] it was greater than 25 µM; in [5], 170 nM; in data set [6] it was 25 nM. Further, the inhibition result in data set [7] is “inactive”.
The compound `O=C(NCc1ccccc1)c1c(O)c2ccncc2[nH]c1=O` had an IC50 in [6] greater than 25000 nM.
`CN(C)C(=O)c1c(O)c2ccncc2[nH]c1=O` showed an IC50 in [6] of 5300 nM.
The same measure, in the same setting: then `CCc1c(O)c2ccncc2n(CC)c1=O`, with 3800 nM.
Regarding `N#Cc1c(O)c2ccccc2[nH]c1=O`, in [6], the IC50 was greater than 25000 nM.
With `O=c1[nH]c(C(F)(F)F)nc2cnccc12`, the pKa in data set [1] worked out at 4.6. Besides, the values for the Ratio IC50 in data set [8], in data set [9] and in data set [10] were 12, greater than 150 and 9, respectively. Moreover, the values for the IC50 in data set [2], in data set [4] and in data set [6] were 1900 nM, greater than 25 µM and 160 nM, respectively.
The compound `CC(C)NC(=O)c1c(O)c2ccncc2[nH]c1=O` came in with an IC50 in [6] of 400 nM.
In turn, `CCOC(=O)c1c(O)nc2ccccc2c1O` displayed an IC50 in data set [6] greater than 25000 nM.
Same read-out and setting: then `CCOC(=O)c1c(O)c2cccnc2[nH]c1=O`, with greater than 25000 nM; and `CNC(=O)c1c(O)c2ccncc2[nH]c1=O`, with 70 nM.
The same measure, in the same setting: with `O=c1cc(O)c2ccncc2[nH]1` the figure was 6700 nM.
On to `CCc1c(O)c2ccncc2[nH]c1=O`, for which the IC50 in data set [11] stood at 2100 nM; in data set [6] it was 230 nM.
`CCN(C)C(=O)c1c(O)c2ccncc2[nH]c1=O` displayed an IC50 in data set [6] of 700 nM.
Broadly, the Papp A→B is the apparent permeability from the apical to the basolateral side of a cell layer. `CCNC(=O)c1c(O)c2ccncc2[nH]c1=O` came in with a pKa in [1] of 6.4. The Papp A→B in data set [12] is 15.8 ×10⁻⁶ cm/s. For the same compound, the fraction unbound in [13] was 0.3. This compound yielded an IC50 in [6] of 50 nM. Also, the CLhep predicted in data set [14] was 11.5 mL/min/kg. In addition, the inhibition result in data set [7] is “inactive”.
Consider `CC(C)c1c(-c2ccccc2)[nH]c2c(C#N)cnn2c1=O`, for which the IC50 in data set [15] stood at 10 nM.
For `O=C(c1c(O)c2ccncc2[nH]c1=O)N1CCCC1`, the IC50 in data set [6] was greater than 25000 nM.
